Reference: ChEMBL document CHEMBL1145911, “Rational design and synthesis of androgen receptor-targeted nonsteroidal anti-androgen ligands for the tumor-specific delivery of a doxorubicin-formaldehyde conjugate” (J Med Chem, 2003)

Target: T1, Androgen receptor (Homo sapiens, UniProt P10275)
T1 sequence (P10275 whole entry): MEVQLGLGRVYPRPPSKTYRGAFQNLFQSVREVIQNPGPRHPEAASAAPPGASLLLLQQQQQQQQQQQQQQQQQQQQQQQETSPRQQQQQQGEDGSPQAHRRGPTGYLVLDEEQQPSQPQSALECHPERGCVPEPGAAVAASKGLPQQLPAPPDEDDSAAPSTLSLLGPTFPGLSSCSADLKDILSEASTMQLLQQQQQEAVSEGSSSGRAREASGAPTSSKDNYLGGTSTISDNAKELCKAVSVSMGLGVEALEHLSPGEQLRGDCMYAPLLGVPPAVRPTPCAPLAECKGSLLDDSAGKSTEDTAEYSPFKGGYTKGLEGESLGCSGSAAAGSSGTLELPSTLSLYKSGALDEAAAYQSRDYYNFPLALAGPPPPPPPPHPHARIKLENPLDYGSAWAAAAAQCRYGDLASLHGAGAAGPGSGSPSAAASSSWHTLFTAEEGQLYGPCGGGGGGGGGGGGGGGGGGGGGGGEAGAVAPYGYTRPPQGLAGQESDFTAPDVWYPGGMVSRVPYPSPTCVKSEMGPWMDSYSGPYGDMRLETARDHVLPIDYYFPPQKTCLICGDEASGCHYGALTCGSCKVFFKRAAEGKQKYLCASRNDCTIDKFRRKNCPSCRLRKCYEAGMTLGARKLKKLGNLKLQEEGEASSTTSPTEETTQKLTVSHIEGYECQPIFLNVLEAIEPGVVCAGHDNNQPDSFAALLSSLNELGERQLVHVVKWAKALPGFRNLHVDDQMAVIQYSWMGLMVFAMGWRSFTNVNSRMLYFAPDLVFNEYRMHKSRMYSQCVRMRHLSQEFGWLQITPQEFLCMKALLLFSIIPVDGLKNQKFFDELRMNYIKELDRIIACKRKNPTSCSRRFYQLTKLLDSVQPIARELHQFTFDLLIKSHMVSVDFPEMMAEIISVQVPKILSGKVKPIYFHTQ
Test: biochemical

Row | IC50 [nM] | Compound
1 | 90 | COc1cccc2c1C(=O)c1c(O)c3c(c(O)c1C2=O)C[C@@](O)(C(=O)CO)C[C@@H]3OC1C[C@H](NCNC(=O)c2cc(COCC#CCN3C(=O)N(c4ccc(C#N)c(C(F)(F)F)c4)C(=O)C3(C)C)ccc2O)[C@H](O)[C@H](C)O1 (stereo partly drawn)
2 | 346 | CC1(C)C(=O)N(c2ccc(C#N)c(C(F)(F)F)c2)C(=O)N1CCOCCN1CCN(CCOCc2ccc(O)c(C(N)=O)c2)CC1

Row | Compound | IC50 [nM]
3 | CC1(C)C(=O)N(c2ccc(C#N)c(C(F)(F)F)c2)C(=O)N1CCCCN1CCN(CCOCc2ccc(O)c(C(N)=O)c2)CC1 | > 1000
